According to patent US20160193148A1, “LIPOSOMAL FORMULATIONS FOR THE TREATMENT OF BACTERIAL INFECTIONS” (UNIVERSITY OF GEORGIA RESEARCH FOUNDATION, INC., priority 2013, published 2016):
Marks after values point to notes of the source that are not given here.

Assay: PELF gentamicin concentrations after single IV or nebulized dose in foals
Protocol: Eight healthy 5-7-week-old Quarter Horse foals were randomly assigned to one of 4 groups using a balanced Latin-square design. Foals were considered healthy on the basis of physical examinations, complete blood cell counts and plasma biochemical profiles. […] The liposome gentamicin formulation was nebulized using Nortev FLEXINEB. For each treatment, gentamicin was administered over a period of 15 minutes. There was a washout period of 7-14 days between each treatment.
For the BAL collection, foals were sedated with xylazine and butorphanol. Concentrations of gentamicin were measured in plasma and in bronchoalveolar cells using HPLC-MS.
Eight foals received a single IV or nebulized dose (6.6 mg/kg bwt) of FG^h or LG in a balanced Latin square design. Beginning at 5-7 weeks of age, every foal received each of the 4 possible drug-route combinations with a 14-day washout period between each administration. Intravenous FG and LG were diluted in 250 ml of sterile 0.9% saline and administered via a jugular catheter as a constant rate infusion over 15 min. Nebulized FG and LG were administered by inhalation over 15 minutes via a commercial equine nebulizer. To ensure equivalent rate of delivery, FG was diluted to the same volume as LG with sterile 0.9% saline. Particle size of nebulized LG was verified using laser diffraction. Blood samples for plasma separation were obtained from a catheter placed in the contralateral jugular vein prior to each drug administration, and at 5, 10, 20, 30, 45 minutes and 1, 1.5, 2, 3, 4, 6, 8, 12, 16, 24 and 48 hours after the end of the 15 minute IV infusion or nebulization period. Bronchoalveolar lavage (BAL) fluid was collected at 2, 4, 8, 24, and 48 hours. Foals were sedated with xylazine hydrochloride (0.5 mg/kg bwt IV) and butorphanol tartrate (0.07 mg/kg bwt IV) prior to collection of BAL fluid. Prior to analysis for gentamicin concentration, blood samples were centrifuged at 400×g for 10 minutes and the resultant plasma frozen at −80° C. until assayed.
A 10 mm diameter, 2.4 m BAL catheter^k was passed via nasal approach until wedged into a bronchus. The lavage solution consisted of 4 aliquots of 60 ml 0.9% saline solution infused and instantly aspirated. Immediately upon collection, the total volume of BAL fluid recovered was measured and a 3 ml aliquot saved in an EDTA tube from which total nucleated cell count was determined by use of a cell counter.^1 BAL fluid was immediately centrifuged at 400×g for 10 min. The BAL cells in the resultant pellet were washed, re-suspended in 500 μl of acetonitrile: 0.2% formic acid (1:1, v/v), vortexed, and frozen at −80° C. until assayed. Supernatant BAL fluid was also frozen at −80° C. until assayed. Before assaying, the cell pellet samples were thawed, vortexed vigorously and sonicated for 10 minutes to ensure complete cell lysis. The resulting suspension was centrifuged at 500×g for 10 minutes and the supernatant fluid was used to determine the intracellular concentrations of gentamicin.
Briefly, gentamicin was extracted from plasma (250 μl) and urine (500 μl) using protein precipitation with an equal volume of ice-cold 90:10 acetonitrile: 0.2% formic acid (v/v). Extracted samples were centrifuged (2° C. at 10,000×g for 10 min) twice. Two-hundred microliters of the supernatants were transferred to polypropylene inserts for injection. The supernatant derived from the lyzed BAL cell pellet was transferred to polypropylene inserts for direct injection without further processing. […] An aliquot of the resultant supernatant was then mixed with an equal volume of ice-cold acetonitrile, centrifuged (2° C. at 10,000×g for 10 minutes) and 200 μl was transferred to polypropylene inserts for injection. Calibration standards were prepared in drug-free foal plasma, BAL fluid or urine and then extracted as described above so that standard curves specific to each biologic matrix could be constructed.

gentamicin sulfate [Free Gentamicin]
AUC0-t (IV): 44.66 ± 20.96^a μg · h/ml
C24 h (IV): 840 ± 640 ng/mL
Tmax (median and range) (IV): 6 (4-8) h
AUC0-24 (IV, Table 2): 44800 ± 21000 ng·h/mL
C48 h (IV, Table 2): 840 ± 640 ng/mL
Cmax (IV, Table 2): 4.6 ± 1.9 µg/mL
Cmax (IV, Table 5): 4.64 ± 1.99^a μg/ml
AUC0-24 (N (nebulized), Table 2): 41000 ± 15800 ng·h/mL
C48 h (N (nebulized), Table 2): 350 ± 340 ng/mL
Cmax (N (nebulized), Table 2): 13.0 ± 6.7 µg/mL
AUC0-t (Neb): 40.97 ± 15.81^a μg · h/ml
C24 h (Neb): 350 ± 340 ng/mL
Tmax (median and range) (Neb): 2 (2-2) h
Cmax (Neb, Table 5): 13.02 ± 6.70^c μg/ml
